Key:
AKT = AKT ELISA, downstream signaling pathway in HCT-116 cells; type: cell-based, human; conditions: compound at its IC50, untreated control 45.39 ng/mL
mTOR = mTOR ELISA, downstream signaling pathway in HCT-116 cells; type: cell-based, human; conditions: compound at its IC50, untreated control 86.39 ng/mL
PI3K = PI3K ELISA, downstream signaling pathway in HCT-116 cells; type: cell-based, human; conditions: compound at its IC50, untreated control 6.64 ng/mL
EGFR = EGFR (Homo sapiens, UniProt P00533); experiment: EGFR protein kinase; type: biochemical; conditions: mean ± SD of three replicates; for inhibition at 10 µM: read-out: autophosphorylation percentage inhibition at conc (10 μM), 10 μM
Sequence of EGFR (P00533 25-1210): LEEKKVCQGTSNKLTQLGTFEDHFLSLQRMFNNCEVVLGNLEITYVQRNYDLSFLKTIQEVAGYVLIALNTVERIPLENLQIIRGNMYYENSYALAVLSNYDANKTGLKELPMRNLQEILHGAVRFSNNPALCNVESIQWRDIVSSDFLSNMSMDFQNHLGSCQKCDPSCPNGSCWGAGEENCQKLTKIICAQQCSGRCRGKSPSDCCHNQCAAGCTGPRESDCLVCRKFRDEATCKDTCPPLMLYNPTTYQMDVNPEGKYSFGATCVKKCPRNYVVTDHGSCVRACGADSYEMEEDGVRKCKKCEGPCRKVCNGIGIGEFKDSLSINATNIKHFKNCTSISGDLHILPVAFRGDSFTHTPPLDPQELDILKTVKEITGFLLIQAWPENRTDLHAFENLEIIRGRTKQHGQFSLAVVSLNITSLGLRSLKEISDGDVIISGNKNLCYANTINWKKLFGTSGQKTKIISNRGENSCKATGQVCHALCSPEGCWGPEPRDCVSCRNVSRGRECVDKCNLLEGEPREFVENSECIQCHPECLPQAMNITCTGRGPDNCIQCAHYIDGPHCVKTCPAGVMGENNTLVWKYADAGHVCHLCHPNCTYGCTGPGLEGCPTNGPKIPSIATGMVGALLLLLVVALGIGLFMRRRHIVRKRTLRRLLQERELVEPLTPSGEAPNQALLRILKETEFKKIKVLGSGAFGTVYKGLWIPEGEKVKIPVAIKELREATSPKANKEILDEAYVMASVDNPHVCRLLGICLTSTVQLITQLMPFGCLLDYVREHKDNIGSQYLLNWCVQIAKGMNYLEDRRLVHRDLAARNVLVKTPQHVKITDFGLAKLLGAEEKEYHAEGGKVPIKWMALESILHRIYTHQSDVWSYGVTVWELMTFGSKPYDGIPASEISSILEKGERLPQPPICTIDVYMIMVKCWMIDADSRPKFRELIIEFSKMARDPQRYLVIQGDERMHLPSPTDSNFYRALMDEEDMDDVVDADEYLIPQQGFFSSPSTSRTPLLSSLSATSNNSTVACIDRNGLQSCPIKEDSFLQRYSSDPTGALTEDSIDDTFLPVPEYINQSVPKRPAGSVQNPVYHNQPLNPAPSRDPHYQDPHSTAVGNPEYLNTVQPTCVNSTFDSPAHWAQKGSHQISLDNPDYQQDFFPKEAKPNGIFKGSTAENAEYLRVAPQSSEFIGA

| Structure (SMILES) | AKT concentration in treated HCT-116 cells (AKT) | mTOR concentration in treated HCT-116 cells (mTOR) | PI3K concentration in treated HCT-116 cells (PI3K) | autophosphorylation percentage inhibition at conc (10 μM) (EGFR) | inhibition at 10 µM (EGFR) |
| --- | --- | --- | --- | --- | --- |
| Cc1cc(C)n(-c2nc(Nc3ccc(Br)cc3)nc(N3CCOCC3)n2)n1 [Compound 4f, N-(4-Bromophenyl)-4-(3,5-dimethyl-1H-pyrazol-1-yl)-6-morpholino-1,3,5-triazin-2-amine] | 12.35 ng/mL | 34.36 ng/mL | 1.24 ng/mL |  |  |
| Cc1cc(C)n(-c2nc(Nc3ccc(Cl)cc3)nc(-n3nc(C)cc3C)n2)n1 [Compound 5c, N-(4-chlorophenyl)-4,6-bis(3,5-dimethyl-1H-pyrazol-1-yl)-1,3,5-triazin-2-amine] |  |  |  | 69.68 ± 2.01% | 70% |
| COc1ccc(Nc2nc(-n3nc(C)cc3C)nc(-n3nc(C)cc3C)n2)cc1 [Compound 5d, 4,6-bis(3,5-dimethyl-1H-pyrazol-1-yl)-N-(4-methoxyphenyl)-1,3,5-triazin-2-amine] |  |  |  | 74.68 ± 2.47% | 74.7% |
